Structures are written as SMILES.

One may read the IC50 as the concentration that inhibits the measured activity by half.

For assay [1], the target named is full-length human PTPN2 (TC45) (1-387) (Homo sapiens (Human), UniProt P17706). Put plainly: Enzymatic assay used to determine potency of PTPN2 inhibitors (full length PTPN2 DiFMUP assay). The format is biochemical. To be noted: 0.5 nM PTPN2, 100 μM DiFMUP, 30 min at room temperature. The method, then:
Compound activity was determined in an in vitro enzymatic assay using untagged, full-length human PTPN2 (TC45) (1-387) protein. PTPN2 was produced in E. coli as a GST-TEV fusion and the GST was removed by TEV digestion, followed by additional purification to yield full-length PTPN2 (SEQ ID 1). PTPN2 enzyme was diluted in assay buffer (50 mM HEPES pH7.5, 0.2 mM EDTA, 1 mM DTT, 0.02% Brij-35, 0.02% BSA) to a final concentration of 0.5 nM and added to black 384-well non-binding plates (Greiner, 781900). Compounds were subsequently added using a Tecan D300e dispenser. Following a 10 min incubation at room temperature, DiFMUP substrate (ThermoFisher, D22065) was added to a final concentration of 100 μM. Plates were transferred to a SpectraMax plate reader (Molecular Devices) and fluorescence intensity was measured (ex 358, em 455) after a 30 min incubation at room temperature. […] A four-parameter curve fit was used to determine IC50 values from % inhibition data.

Assay [2] relates to murine B16F10 melanoma cell line. Put plainly: B16F10 IFNγ-induced cellular growth inhibition assay (xCELLigence RTCA). The format is cell-based. To be noted: Mus musculus, B16-F10, 48 h, B16F10 cells, 1 ng/mL mouse IFNγ, AUC of growth curve, read-out: B16 IFNγ Mediated Growth Inhibition Assay: AVG IC50. The procedure:
Compound activity was determined using an interferon gamma (IFNγ)-induced cellular growth inhibition assay with the murine B16F10 melanoma cell line on an Agilent xCELLigence Real-Time Cell Analysis platform (RTCA). RTCA E-Plate View 96 plates (Agilent, 300601010) were pre-equilibrated with 50 μL of assay media (DMEM+10% FBS, Gibco 10566-024, Gibco 10082-147) at 37° C. in a humidified incubator before taking an initial measurement of impedance (sweep). B16F10 cells cultured in assay media were dissociated with TrypLE Express (Gibco 12605-010) for five minutes at 37° C., diluted in 3 volumes of assay buffer, centrifuged for 5 minutes at 500×g at room temperature before diluting cells to 7,700 cells/mL in assay media, plating 130 μL/well (1,000 cells/well) in the inner 60 wells of the assay plate, and adding 150 μL of assay media to the outer wells of the plate. Cells were incubated at room temperature for 20 min to allow cells to settle before placing them in the xCELLigence reader and incubating overnight at 37° C., sweeping wells every 15 minutes. After 24 hours, well readings were paused, plates were removed from the incubator and compounds were added using a Tecan D300e dispenser. All wells were normalized to a final concentration of 0.5% DMSO. Following a 30 min incubation at 37° C., recombinant mouse IFNγ (R&D Systems™ 485MI100) was diluted to 10 ng/mL in assay media and 20 μL was added to assay wells (1 ng/mL final concentration). Assay plates were placed in the xCELLigence reader and swept every 15 minutes.

Chain of full-length human PTPN2 (TC45) (1-387) (P17706 other isoform, or with tags, fused parts or gaps): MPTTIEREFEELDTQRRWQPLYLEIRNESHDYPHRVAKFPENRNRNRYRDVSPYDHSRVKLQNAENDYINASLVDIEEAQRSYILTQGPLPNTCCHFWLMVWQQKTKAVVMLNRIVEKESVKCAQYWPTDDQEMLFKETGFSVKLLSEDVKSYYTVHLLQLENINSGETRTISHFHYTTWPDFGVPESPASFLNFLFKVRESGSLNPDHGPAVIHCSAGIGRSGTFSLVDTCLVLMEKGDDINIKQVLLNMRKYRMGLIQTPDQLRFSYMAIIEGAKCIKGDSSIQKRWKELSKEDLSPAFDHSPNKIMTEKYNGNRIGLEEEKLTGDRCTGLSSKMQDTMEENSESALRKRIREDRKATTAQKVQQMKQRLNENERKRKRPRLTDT

Consider `O=C1CN(c2c(O)cc(CC3CCN(CC4CCC4)C3)cc2F)S(=O)(=O)N1` (stereo not shown) [Example 22], for which the IC50 was 0.01 µM in assay [1] and 1.23 µM in assay [2].

In the case of `CC(C)(C)CCN1CCC(Cc2cc(O)c(N3CC(=O)NS3(=O)=O)c(F)c2)C1` (stereo not shown) [Example 23], the IC50 was 0.014 µM in assay [1] and 4.33 µM in assay [2].

On to `CCCCCN1CCC(Cc2cc(O)c(N3CC(=O)NS3(=O)=O)c(F)c2)C1` (stereo not shown) [Example 24], for which the IC50 in assay [1] amounted to 0.015 µM; in assay [2], 5.9 µM.

Turning to `O=C1CN(c2c(O)cc(CC3CCNC3)cc2F)S(=O)(=O)N1` (stereo not shown) [Example 27], the IC50 in assay [1] came to 0.007 µM; in assay [2], 9.73 µM.

In the case of `CCCC1NCCC1Cc1cc(O)c(N2CC(=O)NS2(=O)=O)c(F)c1` (stereo not shown) [Example 28], the IC50 in assay [1] is 0.023 µM; in assay [2], over 57 µM.

As for `CCCC1CNCC1Cc1cc(O)c(N2CC(=O)NS2(=O)=O)c(F)c1` (stereo not shown) [Example 29], the IC50 is 0.013 µM in assay [1] and over 62 µM in assay [2].

On to `CCC1CNCC1Cc1cc(O)c(N2CC(=O)NS2(=O)=O)c(F)c1` (stereo not shown) [Example 30], for which the IC50 was 0.013 µM in assay [1] and over 13 µM in assay [2].

As to `CN1CCCC(Cc2cc(O)c(N3CC(=O)NS3(=O)=O)c(F)c2)C1` (stereo not shown) [Example 31, 5-(2-fluoro-6-hydroxy-4-((1-methylpiperidin-3-yl)methyl)phenyl)-1,2,5-thiadiazolidin-3-one 1,1-dioxide], the IC50 came out at 0.047 µM in assay [1] and 29.7 µM in assay [2].

Regarding `O=C1CN(c2c(O)cc(CC3CCCN(CC4CCC4)C3)cc2F)S(=O)(=O)N1` (stereo not shown) [Example 32], the IC50 in assay [1] was found to be 0.035 µM; in assay [2] it was 14.8 µM.

Take `CCCCCN1CCCC(Cc2cc(O)c(N3CC(=O)NS3(=O)=O)c(F)c2)C1` (stereo not shown) [Example 33]: the IC50 in assay [1] stood at 0.035 µM; in assay [2], 28.8 µM.

Consider `O=C1CN(c2c(O)cc(CC3CCCN(CC4CCCC4)C3)cc2F)S(=O)(=O)N1` (stereo not shown) [Example 34], for which the results for the IC50 in assay [1] and in assay [2] were 0.043 µM and 9.96 µM, respectively.

For `CC(C)(C)CCN1CCCC(Cc2cc(O)c(N3CC(=O)NS3(=O)=O)c(F)c2)C1` (stereo not shown) [Example 35], the figures for the IC50 in assay [1] and in assay [2] were 0.031 µM and 13 µM, respectively.

For the compound `CCCCCCN1CCCC(Cc2cc(O)c(N3CC(=O)NS3(=O)=O)c(F)c2)C1` (stereo not shown) [Example 36], the IC50 worked out at 0.022 µM in assay [1] and 81 µM in assay [2].

On to `O=C1CN(c2c(O)cc(CC3CCCN(CC4CC4)C3)cc2F)S(=O)(=O)N1` (stereo not shown) [Example 37], for which the figures for the IC50 in assay [1] and in assay [2] were 0.066 µM and 46.4 µM, respectively.

For the compound `CCCCN1CCCC(Cc2cc(O)c(N3CC(=O)NS3(=O)=O)c(F)c2)C1` (stereo not shown) [Example 38], the IC50 is 0.154 µM in assay [1] and over 100 µM in assay [2].

As for `O=C1CN(c2c(O)cc(CC3CCCN(Cc4cc[nH]c4)C3)cc2F)S(=O)(=O)N1` (stereo not shown) [Example 39], the half-inhibitory concentration (IC50) in assay [1] is 0.063 µM; in assay [2] it was over 100 µM.

In the case of `O=C1CN(c2c(O)cc(CC3CCCN(CCC4CCOCC4)C3)cc2F)S(=O)(=O)N1` (stereo not shown) [Example 40], the IC50 in assay [1] came to 0.046 µM; in assay [2], 38.6 µM.

For the compound `CC(C)CCN1CCCC(Cc2cc(O)c(N3CC(=O)NS3(=O)=O)c(F)c2)C1` (stereo not shown) [Example 41], the IC50 was 0.047 µM in assay [1] and over 100 µM in assay [2].

Take `O=C1CN(c2c(O)cc(CC3CCCN(Cc4cn[nH]c4)C3)cc2F)S(=O)(=O)N1` (stereo not shown) [Example 42]: the IC50 in assay [1] was 0.012 µM; in assay [2] it was over 100 µM.

`O=C1CN(c2c(O)cc(CC3CCCN(CC4CCCO4)C3)cc2F)S(=O)(=O)N1` (stereo not shown) [Example 43]: the IC50 in assay [1] is 0.063 µM; in assay [2] it was 95.9 µM.

For `O=C1CN(c2c(O)cc(CC3CCCN(CC4CCNCC4)C3)cc2F)S(=O)(=O)N1` (stereo not shown) [Example 44], the IC50 was determined as 0.004 µM in assay [1] and 38 µM in assay [2].

Take `O=C1CN(c2c(O)cc(CC3CCCN(Cc4ccoc4)C3)cc2F)S(=O)(=O)N1` (stereo not shown) [Example 45]: the figures for the IC50 in assay [1] and in assay [2] were 0.03 µM and 55.4 µM, respectively.

For `O=C1CN(c2c(O)cc(CC3CCCN(Cc4ccco4)C3)cc2F)S(=O)(=O)N1` (stereo not shown) [Example 46], the IC50 in assay [1] is 0.075 µM; in assay [2] it was over 100 µM.

The values are drawn from patent publication US20250257059A1, “PROTEIN TYROSINE PHOSPHATASE INHIBITORS AND USES THEREOF” (Nerio Therapeutics, Inc., priority 2022, published 2025).
